“And” between values parts separate entries of the source, which are not always exact repeats. Equal entries are not always repeated.
Test system: 616215-338-R-J1-PDC complex spheroids, viability % test/control
Test: Anticancer human tumor 616215-338-R-J1-PDC patient-derived colon adenocarcinoma cell line growth inhibition [CLK]
Settings: for viability, T/C: stronger effect = lower value
How it was run: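 Patient-derived tumor cells grown as complex spheroids with HUVEC endothelial cells and mesenchymal stem cells, treated with drug combinations. Concentrations descend in half-log steps from near clinical Cmax, or from 10 microM if Cmax unknown.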

[1] = curve of first compound, second compound 0.0316 µM
[2] = curve of first compound, second compound 0.1 µM
[3] = curve of first compound, second compound 0.316 µM
[4] = curve of first compound, second compound 1 µM
[5] = curve of first compound, second compound 3.16 µM
[6] = curve of first compound, second compound 10 µM
[7] = second compound 0.0316 µM, first compound 0.0316 µM
[8] = second compound 0.0316 µM, first compound 0.1 µM
[9] = second compound 0.0316 µM, first compound 0.316 µM
[10] = second compound 0.0316 µM, first compound 1 µM
[11] = second compound 0.0316 µM, first compound 3.16 µM
[12] = second compound 0.0316 µM, first compound 10 µM
[13] = second compound 0.1 µM, first compound 0.0316 µM
[14] = second compound 0.1 µM, first compound 0.1 µM
[15] = second compound 0.1 µM, first compound 0.316 µM
[16] = second compound 0.1 µM, first compound 1 µM
[17] = second compound 0.1 µM, first compound 3.16 µM
[18] = second compound 0.1 µM, first compound 10 µM
[19] = second compound 0.316 µM, first compound 0.0316 µM
[20] = second compound 0.316 µM, first compound 0.1 µM
[21] = second compound 0.316 µM, first compound 0.316 µM
[22] = second compound 0.316 µM, first compound 1 µM
[23] = second compound 0.316 µM, first compound 3.16 µM
[24] = second compound 0.316 µM, first compound 10 µM
[25] = second compound 1 µM, first compound 0.0316 µM
[26] = second compound 1 µM, first compound 0.1 µM
[27] = second compound 1 µM, first compound 0.316 µM
[28] = second compound 1 µM, first compound 1 µM
[29] = second compound 1 µM, first compound 3.16 µM
[30] = second compound 1 µM, first compound 10 µM
[31] = second compound 3.16 µM, first compound 0.0316 µM
[32] = second compound 3.16 µM, first compound 0.1 µM
[33] = second compound 3.16 µM, first compound 0.316 µM
[34] = second compound 3.16 µM, first compound 1 µM
[35] = second compound 3.16 µM, first compound 3.16 µM
[36] = second compound 3.16 µM, first compound 10 µM
[37] = second compound 10 µM, first compound 0.0316 µM
[38] = second compound 10 µM, first compound 0.1 µM
[39] = second compound 10 µM, first compound 0.316 µM
[40] = second compound 10 µM, first compound 1 µM
[41] = second compound 10 µM, first compound 3.16 µM
[42] = second compound 10 µM, first compound 10 µM
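Note: spheroids exposed to agents for 7 days.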
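Throughout, for viability, T/C: 100% = DMSO vehicle wells.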

CC(=O)O[C@H]1C(=O)[C@@]2(C)[C@H]([C@H](OC(=O)c3ccccc3)[C@]3(O)C[C@H](OC(=O)[C@H](O)[C@@H](NC(=O)c4ccccc4)c4ccccc4)C(C)=C1C3(C)C)[C@]1(OC(C)=O)CO[C@@H]1C[C@@H]2O
viability, T/C (compound 0.0316 µM): 32.9% and 37.9% | viability, T/C (compound 0.1 µM): 22.2% and 31.7% | viability, T/C (compound 0.316 µM): 18.2% and 24% | viability, T/C (compound 1 µM): 15.4% and 23.8% | viability, T/C (compound 3.16 µM): 19.5% and 23.1% | viability, T/C (compound 10 µM): 24% and 28.7% | IC50 (curve of compound): < 31.6 nM

CC1(C)CCC(CN2CCN(c3ccc(C(=O)NS(=O)(=O)c4ccc(NCC5CCOCC5)c([N+](=O)[O-])c4)c(Oc4cnc5[nH]ccc5c4)c3)CC2)=C(c2ccc(Cl)cc2)C1 + CNC(=O)c1ccc(Nc2nc(OC3CCCC3)c3c(-c4ccc5nc(C)oc5c4)c[nH]c3n2)c(OC)c1
IC50 [1]: > 10000 nM | IC50 [2]: 416 nM | IC50 [3]: < 31.6 nM | IC50 [4]: < 31.6 nM | IC50 [5]: < 31.6 nM | IC50 [6]: < 31.6 nM | viability, T/C [7]: 101% | viability, T/C [8]: 99.1% | viability, T/C [9]: 92.8% | viability, T/C [10]: 100% | viability, T/C [11]: 80% | viability, T/C [12]: 91.5% | viability, T/C [13]: 55.3% | viability, T/C [14]: 50.6% | viability, T/C [15]: 50.9% | viability, T/C [16]: 42.8% | viability, T/C [17]: 18.5% | viability, T/C [18]: 56.7% | viability, T/C [19]: 46.6% | viability, T/C [20]: 49% | viability, T/C [21]: 45.4% | viability, T/C [22]: 33.9% | viability, T/C [23]: 21.2% | viability, T/C [24]: 45.7% | viability, T/C [25]: 50.9% | viability, T/C [26]: 48.2% | viability, T/C [27]: 46.2% | viability, T/C [28]: 35.9% | viability, T/C [29]: 20.5% | viability, T/C [30]: 48.9% | viability, T/C [31]: 38.8% | viability, T/C [32]: 42.5% | viability, T/C [33]: 44.6% | viability, T/C [34]: 33.3% | viability, T/C [35]: 24.8% | viability, T/C [36]: 50.7% | viability, T/C [37]: 36.3% | viability, T/C [38]: 42% | viability, T/C [39]: 41.7% | viability, T/C [40]: 41% | viability, T/C [41]: 27.2% | viability, T/C [42]: 41.7%

C=CC(=O)N1CCN(c2nc(=O)n(-c3c(C)ccnc3C(C)C)c3nc(-c4c(O)cccc4F)c(F)cc23)C(C)C1 (stereo unspecified) + CNC(=O)c1ccc(Nc2nc(OC3CCCC3)c3c(-c4ccc5nc(C)oc5c4)c[nH]c3n2)c(OC)c1
IC50 [1]: > 10000 nM | IC50 [2]: > 10000 nM | IC50 [3]: < 31.6 nM | IC50 [4]: > 10000 nM | IC50 [5]: < 31.6 nM | IC50 [6]: < 31.6 nM | viability, T/C [7]: 89.8% | viability, T/C [8]: 94.6% | viability, T/C [9]: 92.8% | viability, T/C [10]: 93.2% | viability, T/C [11]: 94.6% | viability, T/C [12]: 95.1% | viability, T/C [13]: 53.8% | viability, T/C [14]: 67.8% | viability, T/C [15]: 60.8% | viability, T/C [16]: 64% | viability, T/C [17]: 55.1% | viability, T/C [18]: 56.4% | viability, T/C [19]: 49.7% | viability, T/C [20]: 44.8% | viability, T/C [21]: 46.9% | viability, T/C [22]: 49.8% | viability, T/C [23]: 53.1% | viability, T/C [24]: 49.2% | viability, T/C [25]: 58.5% | viability, T/C [26]: 49.1% | viability, T/C [27]: 50.4% | viability, T/C [28]: 48.9% | viability, T/C [29]: 54.6% | viability, T/C [30]: 54.6% | viability, T/C [31]: 43.2% | viability, T/C [32]: 45.2% | viability, T/C [33]: 40.1% | viability, T/C [34]: 49.1% | viability, T/C [35]: 59.3% | viability, T/C [36]: 52.6% | viability, T/C [37]: 43.5% | viability, T/C [38]: 41.3% | viability, T/C [39]: 46.3% | viability, T/C [40]: 56.6% | viability, T/C [41]: 53.6% | viability, T/C [42]: 54.8%

From PubChem BioAssay AID2060610 (Molecular Pharmacology Branch, DTP, NCI, 2025)
